Earlier results on one substance are cited in patent publication US5045530A, “Pharmaceutical preparations” (priority 1986, dated 1991).

The conditions of this data set: in vivo; cited from earlier work.

With polymyxin B, the plasma half life is 4.5 h.
